Test results as given in patent US10974064B2, “Optogenetic control of behavioral state” (The Board of Trustees of the Leland Stanford Junior …, priority 2013, dated 2021).

Key:
adBNST neurons [1] = assay: Calcium imaging (OGB-1) of persistent activity in adBNST slice after electrical stimulation; assay type: cell-based, mice; conditions: 100 μM APV, then 10 μM NBQX added; N (all cells) 277 for APV, 279 for NBQX + APV
adBNST neurons [2] = assay: Ex vivo slice voltage-clamp recording of light-evoked EPSCs and IPSCs (ChR2 in BLA afferents); assay type: cell-based, mice; conditions: bath application 100 μM picrotoxin; n=4
Experimental: For slice physiology in combination with optogenetics, 3-4 week old male wild-type mice were injected with AAV-CaMKIIa::ChR2-eYFP into the BLA, or male Drd1a-Cre mice were injected with AAV-EFla::DIO-ChR2(H134R)-eYFP into the ovBNST. After a month, acute 300 μm coronal slices were obtained by transcardially perfusing ice-cold sucrose cutting solution (in mM; 11 D-glucose, 234 sucrose, 2.5 KCl, 1.25 NaH2PO4, 10 MgSO4, 0.5 CaCl2, 26 NaHCO3) and slicing in the same solution using a vibratome (VT1000S; Leica, Buffalo Grove, Ill., USA). Slices were recovered in oxygenated artificial cerebrospinal fluid (aCSF; in mM, 123 NaCl, 26 NaHCO3, 3 KCl, 1.25 NaH2PO4, 1 MgCl2, 2 CaCl2, and 11 glucose) at 32° C. for one hour. […]
For the blue light delivery, light was emitted from a 300 W broad-wavelength xenon lamp source (DG-4, Sutter Instruments, Novato, Calif., USA), band-pass filtered at 470±20 nm (Semrock; Rochester, N.Y., USA), passed through additional neutral density filters (ThorLabs; Newton, N.J., USA) and coupled to the fluorescence port of the microscope. […]
Voltage-clamp recordings were made at both −70 mV to isolate EPSCs, and at 0 mV to isolate IPSCs. […] Currents were filtered at 2 kHz, digitized at 50 kHz, and recorded to disk using pClamp10 software (Molecular Devices). […]

Molecule	N (number of cells activated after stimulation) (adBNST neurons [1])	light-evoked IPSCs (adBNST neurons [2])
NC(CCCP(=O)(O)O)C(=O)O (centres unmarked) [APV, 2-amino-5-phosphonopentanoic acid]	61	
picrotoxin		blocked
